Assay results: ChEMBL document CHEMBL4627397 (J Med Chem, 2020)

Experiments:
[1] = in vitro; conditions: dog, MDCK
Description: Apparent permeability in RRCK cells

[2] = physchem; conditions: octanol/water, pH 7.4
Description: Octanol/water partition coefficient, log D of compound at pH 7.4 by shake-flask method

[3] = in vitro; conditions: human, hepatocytes
Description: Intrinsic clearance in human hepatocytes at 0.2 nmol assessed per million cells up to 240 mins in presence of NADPH by LC-MS/MS analysis

[4] = in vitro; conditions: human, liver microsomes

| SMILES | Papp [1] [×10⁻⁶ cm/s] | logD [2] | hepatocyte CLint at 4 h [3] [µL/min/1e6 cells] | microsomal CLint at 1 h, 10 µM [4] [µL/min/mg] |
| --- | --- | --- | --- | --- |
| CCOC(=O)N1CCC(=C2c3ccc(Cl)cc3CC(O)c3cccnc32)CC1 (configuration not stated) | 23.7 | 3.3 | 61.5 | 132 |
| CCOC(=O)N1CCC(=C2c3ccc(Cl)cc3C(O)Cc3cccnc32)CC1 (configuration not stated) | 26.2 | 3.2 | 40 | 157 |
| OC1Cc2cccnc2C(=C2CCNCC2)c2ccc(Cl)cc21 (configuration not stated) | 79.9 | 0.94 | < 1.75 |  |
| CCOC(=O)N1CCC2(CC1)OC21c2ccc(Cl)cc2CCc2cccnc21 (configuration not stated) | 17.9 | 2.9 | 26.2 | 89 |
| CCOC(=O)N1CCC2(CC1)OC21c2ccc(Cl)cc2CCc2ccc[n+]([O-])c21 (configuration not stated) | 15.2 | 2.1 | 4.6 | < 7 |
| CCOC(=O)N1CCC(=C2c3ccc(Cl)cc3CC(F)c3cccnc32)CC1 (configuration not stated) | 13 | 4.5 | 32 | 120 |
| Clc1ccc2c(c1)CCc1cccnc1C2=C1CCNCC1 [DESLORATADINE] | 2.8 | 1.3 |  |  |
| CCOC(=O)N1CCC(=C2c3ccc(Cl)cc3C=Cc3cccnc32)CC1 | 98 | 2.6 | 9 |  |
| CCOC(=O)N1CCC(=C2c3ccc(Cl)cc3CCc3c(CO)ccnc32)CC1 | 16.2 | 2.6 | 58.6 | 283 |
| CCOC(=O)N1C(O)CC(=C2c3ccc(Cl)cc3CCc3cccnc32)CC1O (configuration not stated) | 19.8 | 2.3 | 14 | 21 |
| CCOC(=O)N1CC(O)C(=C2c3ccc(Cl)cc3CCc3cccnc32)C(O)C1 (configuration not stated) | 23 | 2.8 | 18 | 35 |
| OC1Cc2cc(Cl)ccc2C(=C2CCNCC2)c2ncccc21 (configuration not stated) | 78.4 | 1.1 | 3.14 |  |
| CCOC(=O)N1CCC(=C2c3ccc(Cl)cc3CCc3ccc[n+]([O-])c32)CC1 | 26.8 | 2.8 | 17.8 | 48 |
| CCOC(=O)N1CCC(=C2c3ccc(Cl)cc3CCc3ccc[n+](C)c32)CC1 | 0.2 | 0.3 | 6 | 23 |
| CCOC(=O)N1CCC(=C2c3ccc(Cl)cc3CCc3ccc(C(F)F)nc32)CC1 | 7.7 | 4.6 | 48.7 | 108 |

Next, values leading:

| Papp [1] [×10⁻⁶ cm/s] | logD [2] | hepatocyte CLint at 4 h [3] [µL/min/1e6 cells] | microsomal CLint at 1 h, 10 µM [4] [µL/min/mg] | SMILES |
| --- | --- | --- | --- | --- |
| 78 | 3.4 | 82 |  | CCOC(=O)N1C=C/C(=C2\c3ccc(Cl)cc3CC(O)c3cccnc32)CC1 (configuration not stated) |
|  | 3.1 | 67 | 66 | CCOC(=O)N1C=C/C(=C2\c3ccc(Cl)cc3CCc3cc(O)cnc32)CC1 |
| 53 | 3.6 |  |  | CCOC(=O)N1C=C/C(=C2/c3ccc(Cl)cc3CCc3cccnc32)CC1 |
|  | 3.9 | 62 | 61 | CCOC(=O)N1C=C/C(=C2/c3ccc(Cl)cc3CCc3cc(O)cnc32)CC1 |
| 40 | 4.3 |  | 68 | CCOC(=O)N1C=C/C(=C2\c3ccc(Cl)cc3CCc3cccnc32)CC1 |
| 11 | 3.1 | 96 | 132 | CCOC(=O)N1CCC(=C2c3ccc(Cl)cc3CCc3cc(O)cnc32)CC1 |
| 22 | 3.1 | 19 | 51 | CCOC(=O)N1CC/C(=C2/c3ccc(Cl)cc3CCc3cccnc32)C(O)C1 (configuration not stated) |
